Assay results: ChEMBL document CHEMBL1201862, “PubChem BioAssay data set” (2004)
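All cell lines were grown in 96-well plates and treated with compound for 48 hours. The concentration for 50% growth inhibition is given as GI50.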 Calls of active or inactive are those of the source. Cut-off read from the data, not from the text of the source: active = GI50 up to about 1.1 µM and inactive = higher. Where a SMILES comes first, the peptide text is derived from it. Bridges are numbered along the chain shown (N, C = ends). The star is where a group is joined. Cbz = O=C(OCc1ccccc1)*

Assays:
Assay in all cases: NCI tumour cell line growth inhibition, 48 h
786-0 = tested on: 786-0
A498 = tested on: A498
A549 = tested on: A549
ACHN = tested on: ACHN
BT-549 = tested on: BT-549
CAKI-1 = tested on: CAKI-1
COLO 205 = tested on: COLO 205
DU-145 = tested on: DU-145
EKVX = tested on: EKVX
HCC 2998 = tested on: HCC 2998
HCT-116 = tested on: HCT-116
HCT-15 = tested on: HCT-15
HOP-62 = tested on: HOP-62
HOP-92 = tested on: HOP-92
HT-29 = tested on: HT-29
IGROV-1 = tested on: IGROV-1
K562 = tested on: K562
KM12 = tested on: KM12
M14 = tested on: M14
MCF7 = tested on: MCF7
MDA-MB-231 = tested on: MDA-MB-231
MDA-MB-435 = tested on: MDA-MB-435
MDA-N = tested on: MDA-N
MOLT-4 = tested on: MOLT-4
Malme-3M = tested on: Malme-3M
NCI-H226 = tested on: NCI-H226
NCI-H23 = tested on: NCI-H23
NCI-H460 = tested on: NCI-H460
NCI-H522 = tested on: NCI-H522
NCI/ADR-RES = tested on: NCI/ADR-RES
OVCAR-4 = tested on: OVCAR-4
OVCAR-5 = tested on: OVCAR-5
PC-3 = tested on: PC-3
RPMI-8226 = tested on: RPMI-8226
RXF 393 = tested on: RXF 393
SF-268 = tested on: SF-268
SF-295 = tested on: SF-295
SK-MEL-28 = tested on: SK-MEL-28
SK-MEL-2 = tested on: SK-MEL-2
SK-MEL-5 = tested on: SK-MEL-5
SK-OV-3 = tested on: SK-OV-3
SN12C = tested on: SN12C
SNB-19 = tested on: SNB-19
SNB-75 = tested on: SNB-75
SW-620 = tested on: SW-620
TK-10 = tested on: TK-10
U-251 = tested on: U-251
UACC-257 = tested on: UACC-257
UACC-62 = tested on: UACC-62
UO-31 = tested on: UO-31
CCRF-CEM = tested on: CCRF-CEM
HL-60 = tested on: HL-60
LOX IMVI = tested on: LOX IMVI
OVCAR-3 = tested on: OVCAR-3
OVCAR-8 = tested on: OVCAR-8
SF-539 = tested on: SF-539
SR = tested on: SR
Hs-578T = tested on: Hs-578T
T47D = tested on: T47D

Nn1c(CNc2ccc(-c3nnc(Nc4ccc(Cl)cc4)n3N)cc2)nnc1Nc1ccc(Cl)cc1
GI50 (786-0): > 100 µM (inactive) | GI50 (A498): > 100 µM (inactive) | GI50 (A549): > 100 µM (inactive) | GI50 (ACHN): > 100 µM (inactive) | GI50 (BT-549): > 100 µM (inactive) | GI50 (CAKI-1): > 100 µM (inactive) | GI50 (COLO 205): > 100 µM (inactive) | GI50 (DU-145): > 100 µM (inactive) | GI50 (EKVX): > 100 µM (inactive) | GI50 (HCC 2998): > 100 µM (inactive) | GI50 (HCT-116): 37.1 µM (inactive) | GI50 (HCT-15): > 100 µM | GI50 (HOP-62): 34.1 µM (inactive) | GI50 (HOP-92): > 100 µM (inactive) | GI50 (HT-29): 44.2 µM (inactive) | GI50 (IGROV-1): > 100 µM (inactive) | GI50 (K562): 67.9 µM (inactive) | GI50 (KM12): > 100 µM (inactive) | GI50 (M14): 51.6 µM (inactive) | GI50 (MCF7): 61.1 µM (inactive) | GI50 (MDA-MB-231): > 100 µM (inactive) | GI50 (MDA-MB-435): > 100 µM (inactive) | GI50 (MDA-N): 80.7 µM (inactive) | GI50 (MOLT-4): 55.7 µM (inactive) | GI50 (Malme-3M): > 100 µM (inactive) | GI50 (NCI-H226): > 100 µM (inactive) | GI50 (NCI-H23): > 100 µM (inactive) | GI50 (NCI-H460): > 100 µM (inactive) | GI50 (NCI-H522): 75.5 µM (inactive) | GI50 (NCI/ADR-RES): > 100 µM (inactive) | GI50 (OVCAR-4): > 100 µM (inactive) | GI50 (OVCAR-5): > 100 µM (inactive) | GI50 (PC-3): > 100 µM (inactive) | GI50 (RPMI-8226): 61.9 µM (inactive) | GI50 (RXF 393): > 100 µM (inactive) | GI50 (SF-268): > 100 µM (inactive) | GI50 (SF-295): > 100 µM (inactive) | GI50 (SK-MEL-28): > 100 µM (inactive) | GI50 (SK-MEL-2): > 100 µM (inactive) | GI50 (SK-MEL-5): > 100 µM (inactive) | GI50 (SK-OV-3): > 100 µM (inactive) | GI50 (SN12C): > 100 µM (inactive) | GI50 (SNB-19): > 100 µM (inactive) | GI50 (SNB-75): > 100 µM (inactive) | GI50 (SW-620): > 100 µM (inactive) | GI50 (TK-10): > 100 µM (inactive) | GI50 (U-251): > 100 µM (inactive) | GI50 (UACC-257): > 100 µM (inactive) | GI50 (UACC-62): 50.9 µM (inactive) | GI50 (UO-31): 61.4 µM (inactive)

Cc1ccc(S(=O)(=O)OCCC2CN(C(=O)OCc3ccccc3)C(C)(C)O2)cc1 (stereo not given)
GI50 (786-0): 11.6 µM (inactive) | GI50 (A498): > 100 µM (inactive) | GI50 (A549): 9.59 µM (inactive) | GI50 (ACHN): 12.9 µM (inactive) | GI50 (BT-549): 1.89 µM (inactive) | GI50 (CAKI-1): 60.1 µM (inactive) | GI50 (CCRF-CEM): 14.4 µM (inactive) | GI50 (COLO 205): 7.38 µM (inactive) | GI50 (DU-145): 57.8 µM (inactive) | GI50 (EKVX): 18.3 µM (inactive) | GI50 (HCC 2998): 6.07 µM (inactive) | GI50 (HCT-116): 7.23 µM (inactive) | GI50 (HCT-15): 3.66 µM | GI50 (HL-60): 5.24 µM (inactive) | GI50 (HOP-92): 62.2 µM (inactive) | GI50 (IGROV-1): 7.08 µM (inactive) | GI50 (K562): 8.63 µM (inactive) | GI50 (KM12): 2.75 µM (inactive) | GI50 (LOX IMVI): 10.8 µM (inactive) | GI50 (M14): 7.38 µM (inactive) | GI50 (MCF7): 7.83 µM (inactive) | GI50 (MDA-MB-231): > 100 µM (inactive) | GI50 (MDA-MB-435): 3.61 µM (inactive) | GI50 (MDA-N): 12.5 µM (inactive) | GI50 (MOLT-4): 2.81 µM (inactive) | GI50 (Malme-3M): 8.2 µM (inactive) | GI50 (NCI-H226): 0.106 µM (active) | GI50 (NCI-H23): 2.96 µM (inactive) | GI50 (NCI-H460): 3.47 µM (inactive) | GI50 (NCI-H522): 2.7 µM (inactive) | GI50 (NCI/ADR-RES): 2.4 µM (inactive) | GI50 (OVCAR-3): 39.6 µM (inactive) | GI50 (OVCAR-4): 6.68 µM (inactive) | GI50 (OVCAR-5): > 100 µM (inactive) | GI50 (OVCAR-8): 4.2 µM (inactive) | GI50 (PC-3): 4.79 µM (inactive) | GI50 (RPMI-8226): 3.92 µM (inactive) | GI50 (RXF 393): 6.4 µM (inactive) | GI50 (SF-295): 13.5 µM (inactive) | GI50 (SF-539): 12.5 µM (inactive) | GI50 (SK-MEL-28): 11.4 µM (inactive) | GI50 (SK-MEL-2): 17.7 µM (inactive) | GI50 (SK-MEL-5): 2.72 µM (inactive) | GI50 (SK-OV-3): > 100 µM (inactive) | GI50 (SN12C): > 100 µM (inactive) | GI50 (SNB-19): 3.83 µM (inactive) | GI50 (SR): 4.47 µM (inactive) | GI50 (SW-620): 14.3 µM (inactive) | GI50 (TK-10): 8.75 µM (inactive) | GI50 (U-251): 16.7 µM (inactive) | GI50 (UACC-257): 7.41 µM (inactive) | GI50 (UACC-62): 10.2 µM (inactive) | GI50 (UO-31): 3.69 µM (inactive)

COC(=O)C1CCCCNC(=O)CCC(NC(=O)OCc2ccccc2)C(=O)N1 (stereo not drawn) (Cbz-Glu-Lys-OMe; lactam 1-2; configuration not given here)
GI50 (786-0): 43.6 µM (inactive) | GI50 (A498): > 100 µM (inactive) | GI50 (A549): > 100 µM (inactive) | GI50 (ACHN): > 100 µM (inactive) | GI50 (CAKI-1): > 100 µM (inactive) | GI50 (CCRF-CEM): > 100 µM (inactive) | GI50 (COLO 205): > 100 µM (inactive) | GI50 (DU-145): > 100 µM (inactive) | GI50 (EKVX): > 100 µM (inactive) | GI50 (HCT-116): > 100 µM (inactive) | GI50 (HCT-15): > 100 µM | GI50 (HL-60): > 100 µM (inactive) | GI50 (HOP-62): 38.7 µM (inactive) | GI50 (HOP-92): 43.6 µM (inactive) | GI50 (HT-29): > 100 µM (inactive) | GI50 (Hs-578T): 65.9 µM (inactive) | GI50 (IGROV-1): > 100 µM (inactive) | GI50 (K562): > 100 µM (inactive) | GI50 (KM12): > 100 µM (inactive) | GI50 (LOX IMVI): > 100 µM (inactive) | GI50 (M14): > 100 µM (inactive) | GI50 (MCF7): > 100 µM (inactive) | GI50 (MDA-MB-231): 62.7 µM (inactive) | GI50 (MDA-MB-435): > 100 µM (inactive) | GI50 (MDA-N): > 100 µM (inactive) | GI50 (MOLT-4): > 100 µM (inactive) | GI50 (Malme-3M): > 100 µM (inactive) | GI50 (NCI-H226): > 100 µM (inactive) | GI50 (NCI-H23): > 100 µM (inactive) | GI50 (NCI-H460): > 100 µM (inactive) | GI50 (NCI-H522): > 100 µM (inactive) | GI50 (NCI/ADR-RES): > 100 µM (inactive) | GI50 (OVCAR-3): > 100 µM (inactive) | GI50 (OVCAR-4): > 100 µM (inactive) | GI50 (OVCAR-5): > 100 µM (inactive) | GI50 (OVCAR-8): > 100 µM (inactive) | GI50 (PC-3): > 100 µM (inactive) | GI50 (RPMI-8226): > 100 µM (inactive) | GI50 (RXF 393): 25.5 µM (inactive) | GI50 (SF-268): 56.1 µM (inactive) | GI50 (SF-295): 50.1 µM (inactive) | GI50 (SF-539): > 100 µM (inactive) | GI50 (SK-MEL-28): > 100 µM (inactive) | GI50 (SK-MEL-2): > 100 µM (inactive) | GI50 (SK-MEL-5): > 100 µM (inactive) | GI50 (SK-OV-3): 56.1 µM (inactive) | GI50 (SN12C): > 100 µM (inactive) | GI50 (SNB-19): 66.7 µM (inactive) | GI50 (SNB-75): > 100 µM (inactive) | GI50 (SR): > 100 µM (inactive) | GI50 (SW-620): > 100 µM (inactive) | GI50 (T47D): > 100 µM (inactive) | GI50 (TK-10): > 100 µM (inactive) | GI50 (U-251): 39.3 µM (inactive) | GI50 (UACC-257): > 100 µM (inactive) | GI50 (UACC-62): > 100 µM (inactive) | GI50 (UO-31): > 100 µM (inactive)
